In one test the target is T1, JAK3 (Homo sapiens, UniProt P52333).
T1 construct: 5 μl of catalytic domain recombinant Kinase enzyme+Tyr peptide substrate (Invitrogen, Calif.); purchased Invitrogen
As to the kind of experiment: Z'-LYTE kinase assay, JAK3 tyrosine phosphorylation activity. Format: biochemical. In short, it runs like this: (§1)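 Catalytic-domain recombinant enzymes phosphorylate a coumarin/fluorescein-labelled Tyr6 peptide for 1 h at room temperature in the presence of ATP and compound (1% DMSO). Development Reagent then cleaves non-phosphorylated peptide over 1 h, and emission ratio 445/520 nm (ex 400 nm) gives percent phosphorylation; IC50 by 4-parameter logistic model.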

In the next test the target is T2, JAK2 (Homo sapiens, UniProt O60674).
T2 construct: 5 μl of catalytic domain recombinant Kinase enzyme+Tyr peptide substrate (Invitrogen, Calif.); purchased Invitrogen
T2 sequence (O60674 849-1124 limits assumed): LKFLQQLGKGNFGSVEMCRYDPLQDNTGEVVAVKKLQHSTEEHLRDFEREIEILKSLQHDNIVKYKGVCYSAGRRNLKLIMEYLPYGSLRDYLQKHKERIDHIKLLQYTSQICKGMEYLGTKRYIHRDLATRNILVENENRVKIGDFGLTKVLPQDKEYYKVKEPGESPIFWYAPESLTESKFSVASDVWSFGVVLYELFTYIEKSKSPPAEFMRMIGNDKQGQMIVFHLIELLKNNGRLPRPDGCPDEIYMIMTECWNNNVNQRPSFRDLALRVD
As to the kind of experiment: Z'-LYTE kinase assay, JAK2 tyrosine phosphorylation activity. The class given is biochemical. Put shortly: as §1

For test [1], the target named is T3, Syk (Homo sapiens, UniProt P43405). The experiment in a line: Syk kinase inhibition (Syk IC50 of Table 1). Format: biochemical.
The target in another test is T4, JAK1 (Homo sapiens, UniProt P23458).
T4 construct: 5 μl of catalytic domain recombinant Kinase enzyme+Tyr peptide substrate (Invitrogen, Calif.); purchased Invitrogen
T4 sequence (P23458 875-1153 limits assumed): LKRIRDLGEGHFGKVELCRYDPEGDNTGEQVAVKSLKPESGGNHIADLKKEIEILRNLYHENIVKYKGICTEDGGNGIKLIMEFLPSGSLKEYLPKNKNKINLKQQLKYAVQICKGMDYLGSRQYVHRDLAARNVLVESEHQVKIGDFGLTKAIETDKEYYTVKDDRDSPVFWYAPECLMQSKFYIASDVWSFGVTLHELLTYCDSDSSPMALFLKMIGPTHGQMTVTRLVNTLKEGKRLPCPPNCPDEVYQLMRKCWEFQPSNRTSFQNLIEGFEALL
As to the kind of experiment: Z'-LYTE kinase assay, JAK1 tyrosine phosphorylation activity. The class given is biochemical. The following applies: read-out: JAK 1 IC50. In short, it runs like this: as §1

The target of a further test is T5, TYK2 (Homo sapiens, UniProt P29597).
T5 construct: 5 μl of catalytic domain recombinant Kinase enzyme+Tyr peptide substrate (Invitrogen, Calif.); purchased Invitrogen
T5 sequence (P29597 897-1176 limits assumed): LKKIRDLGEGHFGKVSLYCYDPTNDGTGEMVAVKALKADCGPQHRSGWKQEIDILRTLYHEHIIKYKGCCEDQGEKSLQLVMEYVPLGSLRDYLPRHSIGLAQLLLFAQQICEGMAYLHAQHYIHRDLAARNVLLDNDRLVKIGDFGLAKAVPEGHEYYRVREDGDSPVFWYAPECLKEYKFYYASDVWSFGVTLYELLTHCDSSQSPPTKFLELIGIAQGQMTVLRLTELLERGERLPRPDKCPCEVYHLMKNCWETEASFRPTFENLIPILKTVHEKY
As to the kind of experiment: Z'-LYTE kinase assay, TYK2 tyrosine phosphorylation activity. The class given is biochemical. In short, it runs like this:
as §1

Test [2] concerns IL4-induced phospho STAT6 formation in Ramos B lymphocytes. As to the kind of experiment: Inhibition of IL4-induced phospho STAT6 formation in Ramos B lymphocytes (flow cytometry). The following applies: Homo sapiens; for inhibition at 0.2 µM: 200 nM compound, read-out: % Inhibition of IL-4 Induced STAT6 Phosphorylation 200 nM; for inhibition at 1 µM: 1 μM compound, read-out: % Inhibition of IL-4 Induced STAT6 Phosphorylation 1 μM. The class given is cell-based, human. In short, it runs like this: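 Read-out: phospho-STAT6 (Y641) mean fluorescent intensity by intracellular flow cytometry, expressed as inhibition of the IL4-induced signal. Ramos B lymphocytes were given compound for 1 h at 37°C, then 1 ng/ml IL4 for 10 min, before fixation and methanol permeabilization.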

The target of test [3] is T3, Syk. As to the kind of experiment: Syk IC50 (Table 1; method not given). The class given is biochemical.

Each structure is given as a SMILES string.

T1 sequence (P52333 822-1111 limits assumed): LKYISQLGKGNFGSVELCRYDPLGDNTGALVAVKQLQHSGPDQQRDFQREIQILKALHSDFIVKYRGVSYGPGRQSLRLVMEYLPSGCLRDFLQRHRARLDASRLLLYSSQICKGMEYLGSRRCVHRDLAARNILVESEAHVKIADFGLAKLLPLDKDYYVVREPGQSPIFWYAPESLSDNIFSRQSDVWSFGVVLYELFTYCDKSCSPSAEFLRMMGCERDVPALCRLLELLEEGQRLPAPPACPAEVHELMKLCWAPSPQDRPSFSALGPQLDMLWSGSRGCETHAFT

On to `CN(C)[C@@H]1CCN(C(=O)Nc2cccc(Nc3cc(N[C@H](CO)c4ccccc4)c(C(N)=O)cn3)c2)C1` [Example 312, 6-(3-((R)-3-(dimethylamino)pyrrolidine-1-carboxamido)phenylamino)-4-((S)-2-hydroxy-1-phenylethylamino)nicotinamide], for which the IC50 (usually the concentration at which inhibition is half-maximal) at JAK3 is 1 to 10 nM; against JAK2 it was 100 to 1000 nM; on Syk [1], more than 1000 nM; on JAK1, more than 1000 nM.
On to `CC(=O)Nc1cccc(Nc2cc(NCc3ccccc3F)c(C(N)=O)cn2)c1` [Example 340, 6-(3-acetamidophenylamino)-4-(2-fluorobenzylamino)nicotinamide], for which the IC50 at JAK3 is 10 to 100 nM; against JAK2 it was 100 to 1000 nM; on Syk [1] it was more than 1000 nM; at JAK1 it was 100 to 1000 nM.
Consider `CCOC(=O)Nc1cccc(Nc2ncc(C(N)=O)c(NCc3ccccc3)n2)c1` [Example 31, ethyl 3-(4-(benzylamino)-5-carbamoylpyrimidin-2-ylamino)phenylcarbamate], for which the IC50 against TYK2 was 10 to 100 nM; against Syk [3], more than 1000 nM; on JAK3, 1 to 10 nM; against JAK2, 100 to 1000 nM; at JAK1 it was 100 to 1000 nM. Moreover, the inhibition – broadly, the relative decrease from the control value, in per cent – at 0.2 µM in test [2] came out at 13.7%. The inhibition at 1 µM in test [2] came out at 37%.
`C[C@@H](Nc1nc(Nc2cccc(NC(=O)N3CC=CC3)c2)ncc1C(N)=O)c1ccccc1` [Example 121, (R)-2-(3-(2,5-dihydro-1H-pyrrole-1-carboxamido)phenylamino)-4-(1-phenylethylamino)pyrimidine-5-carboxamide]: the IC50 is 10 to 100 nM against TYK2; more than 1000 nM against Syk [3]; 1 to 10 nM against JAK3; 10 to 100 nM against JAK2; 100 to 1000 nM on JAK1. The inhibition at 0.2 µM in test [2] amounted to 18.3%. Further, in test [2], the inhibition at 1 µM was 61.7%.
`CC(=O)Nc1cccc(Nc2ncc(C(N)=O)c(NCC3CCCN(C(N)=O)C3)n2)c1` (centres unmarked) [Example 117, 2-(3-acetamidophenylamino)-4-((1-carbamoylpiperidin-3-yl)methylamino)pyrimidine-5-carboxamide]: the IC50 is 1 to 10 nM against TYK2; 100 to 1000 nM at Syk [3]; less than 1 nM against JAK3; 1 to 10 nM against JAK2; 10 to 100 nM at JAK1. Also, the inhibition at 0.2 µM in test [2] worked out at 4.5%. The inhibition at 1 µM in test [2] turned out to be 29.5%.
In the case of `C[C@@H](Nc1nc(Nc2cccc(NC(=O)N3CC[C@H](O)C3)c2)ncc1C(N)=O)c1ccccc1` [Example 128, 2-(3-((S)-3-hydroxypyrrolidine-1-carboxamido)phenylamino)-4-((R)-1-phenylethylamino)pyrimidine-5-carboxamide], the IC50 against TYK2 was 10 to 100 nM; on Syk [3], more than 1000 nM; against JAK3, less than 1 nM; against JAK2 it was 10 to 100 nM; on JAK1, 10 to 100 nM. Also, the inhibition at 0.2 µM in test [2] was 31.7%. Also, the inhibition at 1 µM in test [2] was 82.7%.
On to `COCC(=O)Nc1cccc(Nc2ncc(C(N)=O)c(NC(C)C)n2)c1` [Example 57, 4-(isopropylamino)-2-(3-(2-methoxyacetamido)phenylamino)pyrimidine-5-carboxamide], for which the IC50 was in the range of 10 to 100 nM against TYK2; 100 to 1000 nM on Syk [3]; 1 to 10 nM against JAK3; 10 to 100 nM on JAK2; 10 to 100 nM at JAK1. Further, the inhibition at 0.2 µM in test [2] came out at 55%. The inhibition at 1 µM in test [2] stood at 76.5%.
Turning to `CC(=O)Nc1cccc(Nc2ncc(C(N)=O)c(N[C@H](CO)Cc3cnc[nH]3)n2)c1` [Example 60, (S)-2-(3-acetamidophenylamino)-4-(1-hydroxy-3-(1H-imidazol-5-yl)propan-2-ylamino)pyrimidine-5-carboxamide], the half-inhibitory concentration (IC50) against TYK2 was 100 to 1000 nM; on Syk [3] it was more than 1000 nM; on JAK3, 10 to 100 nM; against JAK2 it was 100 to 1000 nM; at JAK1, 100 to 1000 nM. For the same compound, the inhibition at 0.2 µM in test [2] was 12.5%. Moreover, the inhibition at 1 µM in test [2] is 23%.
Turning to `CC(=O)Nc1cccc(Nc2ncc(C(N)=O)c(N[C@H](CO)c3ccccc3)n2)c1` [Example 93, (S)-2-(3-acetamidophenylamino)-4-(2-hydroxy-1-phenylethylamino)pyrimidine-5-carboxamide], the IC50 against TYK2 was 10 to 100 nM; at Syk [3], more than 1000 nM; against JAK3, 1 to 10 nM; against JAK2, 10 to 100 nM; on JAK1, 100 to 1000 nM. In test [2], the inhibition at 0.2 µM is 20%. Besides, in test [2], the inhibition at 1 µM came to 53%.
Turning to `NC(=O)c1cnc(Nc2cccc(NC(=O)C3CCC3)c2)nc1NC1CCCC1` [Example 20, 2-(3-(cyclobutanecarboxamido)phenylamino)-4-(cyclopentylamino)pyrimidine-5-carboxamide], the IC50 lay within 1 to 10 nM on TYK2; 100 to 1000 nM at Syk [3]; 1 to 10 nM on JAK3; 10 to 100 nM at JAK2; 10 to 100 nM on JAK1. The inhibition at 0.2 µM in test [2] was 41.3%. The inhibition at 1 µM in test [2] turned out to be 89.6%.
With `NC(=O)c1cnc(Nc2cccc(NC(=O)C3CCC3)c2)nc1NCc1ccccc1` [Example 27, 4-(benzylamino)-2-(3-(cyclobutanecarboxamido)phenylamino)pyrimidine-5-carboxamide], the IC50 against TYK2 is 10 to 100 nM; against Syk [3], more than 1000 nM; at JAK3, 1 to 10 nM; against JAK2, 10 to 100 nM; at JAK1 it was 100 to 1000 nM. Also, in test [2], the inhibition at 0.2 µM stood at 7%. The inhibition at 1 µM in test [2] was determined as 54.3%.
In the case of `NC(=O)c1cnc(Nc2cccc(NC(=O)C3CC3)c2)nc1NCc1ccccc1` [Example 26, 4-(benzylamino)-2-(3-(cyclopropanecarboxamido)phenylamino)pyrimidine-5-carboxamide], the concentration for half-maximal inhibition (IC50) at TYK2 is 1 to 10 nM; against Syk [3] it was more than 1000 nM; on JAK3, 1 to 10 nM; against JAK2, 10 to 100 nM; on JAK1, 100 to 1000 nM. Moreover, in test [2], the inhibition at 0.2 µM is 7.3%. Further, in test [2], the inhibition at 1 µM turned out to be 45.7%.
As for `CC(C)OC(=O)Nc1cccc(Nc2ncc(C(N)=O)c(NCc3ccccc3)n2)c1` [Example 41, isopropyl 3-(4-(benzylamino)-5-carbamoylpyrimidin-2-ylamino)phenylcarbamate], the IC50 is 10 to 100 nM against TYK2; more than 1000 nM at Syk [3]; 10 to 100 nM at JAK3; 100 to 1000 nM on JAK2; more than 1000 nM on JAK1. For the same compound, in test [2], the inhibition at 0.2 µM was determined as 50.7%. Moreover, in test [2], the inhibition at 1 µM stood at 95.3%.
Consider `CNC(=O)Nc1cc(Nc2ncc(C(N)=O)c(NCc3ccccc3)n2)ccc1Cl` [Example 131, 4-(benzylamino)-2-(4-chloro-3-(3-methylureido)phenylamino)pyrimidine-5-carboxamide], for which the IC50 was 10 to 100 nM on TYK2; more than 1000 nM on Syk [3]; 1 to 10 nM against JAK3; 100 to 1000 nM at JAK2; more than 1000 nM at JAK1. For the same compound, the inhibition at 0.2 µM in test [2] is 0.3%. In test [2], the inhibition at 1 µM is 4.3%.

These data come from patent publication US8853230B2, “Inhibitors of JAK” (Portola Pharmaceuticals, Inc., priority 2009, dated 2014).
